The text below walks through data of patent publication US9920010B2, “CXCR7 receptor modulators” (IDORSIA PHARMACEUTICALS LTD, priority 2013, dated 2018).

The target of this assay is T1, CXCR7 (Homo sapiens, UniProt P25106).
T1 construct: host or cells: CHO-K1 (PathHunter CHO-K1 CXCR7 b-arrestin cell line, stably transfected)
T1 sequence (P25106 whole entry): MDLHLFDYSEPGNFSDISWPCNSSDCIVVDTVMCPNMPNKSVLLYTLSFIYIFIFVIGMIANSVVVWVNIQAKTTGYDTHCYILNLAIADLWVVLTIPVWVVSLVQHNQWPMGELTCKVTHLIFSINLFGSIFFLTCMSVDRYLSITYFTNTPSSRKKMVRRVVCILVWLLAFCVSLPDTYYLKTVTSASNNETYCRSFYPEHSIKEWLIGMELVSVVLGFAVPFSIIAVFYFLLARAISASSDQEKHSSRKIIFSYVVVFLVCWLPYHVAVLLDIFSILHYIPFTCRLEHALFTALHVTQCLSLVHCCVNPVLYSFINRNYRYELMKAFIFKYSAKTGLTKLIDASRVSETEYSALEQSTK
T1 sequence (P32121 whole entry partner): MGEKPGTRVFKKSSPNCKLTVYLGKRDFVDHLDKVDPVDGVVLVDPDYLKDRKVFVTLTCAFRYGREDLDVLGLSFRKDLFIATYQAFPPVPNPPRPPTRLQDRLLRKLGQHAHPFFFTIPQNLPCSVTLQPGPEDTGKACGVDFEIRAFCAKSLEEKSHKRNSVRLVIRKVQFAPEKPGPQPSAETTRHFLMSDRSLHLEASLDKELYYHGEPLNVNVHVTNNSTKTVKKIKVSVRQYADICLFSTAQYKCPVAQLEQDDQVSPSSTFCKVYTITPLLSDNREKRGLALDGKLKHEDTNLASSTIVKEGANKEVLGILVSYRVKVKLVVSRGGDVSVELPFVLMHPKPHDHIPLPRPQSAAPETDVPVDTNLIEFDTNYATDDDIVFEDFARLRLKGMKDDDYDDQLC
Briefly: PathHunter CHO-K1 CXCR7 b-arrestin recruitment assay (CXCR7 agonistic activity). It counts as cell-based. Particulars: PathHunter CHO-K1 CXCR7 b-arrestin cell line. In outline:
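Stable CHO-K1 line with C-terminally ProLink-tagged CXCR7 and β-arrestin 2–EA fusion; β-arrestin recruitment restores β-gal activity, read by chemiluminescence after 1 h RT detection. Cells seeded 24 h, starved in OPTIMEM 3–4 h, exposed to compounds 90 min at 37 °C in HBSS/HEPES/BSA. Geometric-mean EC50 from repeated measurements.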
(In general: Arrestin recruitment assays detect the binding of arrestin to an activated receptor.)
One may read the EC50 as the concentration at which the effect is half-maximal. Lower therefore signals a more potent agent. `CN(C)CCN(Cc1ccccc1C(F)(F)F)C(=O)CNc1cccc2c1CCN(CC1CC1)C2=O` [Example 315, 2-(2-Cyclopropylmethyl-1-oxo-1,2,3,4-tetrahydro-isoquinolin-5-ylamino)-N-(2-dimethylamino-ethyl)-N-(2-trifluoromethyl-benzyl)-acetamide] had an EC50 of 5 nM. As to `CN(C)CCN(CCc1ccccc1)C(=O)Cc1cccc2c1CCN(CC1CC1)C2` [Example 2, 2-(2-Cyclopropylmethyl-1,2,3,4-tetrahydro-isoquinolin-5-yl)-N-(2-dimethylamino-ethyl)-N-phenethyl-acetamide], the concentration for a half-maximal effect (EC50) turned out to be 144 nM. Consider `CCC(=O)N1CCc2c(cccc2NCC(=O)N(CCN(C)C)Cc2ccccc2C(F)(F)F)C1` [Example 35, N-(2-Dimethylamino-ethyl)-2-(2-propionyl-1,2,3,4-tetrahydro-isoquinolin-5-ylamino)-N-(2-trifluoromethyl-benzyl)-acetamide], for which the EC50 was 4 nM. `CN1CCC(N(Cc2ccccc2C(F)(F)F)C(=O)CNc2cccc3c2CN(CC2CC2)CC3(C)C)CC1` [compound 200] returned a half-maximal effective concentration (EC50) of 235 nM. For the compound `CN(C)CCN(Cc1ccccc1C(F)(F)F)C(=O)NCc1cccc2c1CCN(CC1CC1)C2` [Example 568, 3-(2-Cyclopropylmethyl-1,2,3,4-tetrahydro-isoquinolin-5-ylmethyl)-1-(2-dimethylamino-ethyl)-1-(2-trifluoromethyl-benzyl)-urea], the response was half-maximal at 29 nM (EC50).

Consider `CC(C)(C)OC(=O)N1CCC(CN(Cc2ccccc2C(F)(F)F)C(=O)CNc2cccc3c2CCN(CC2CC2)C3)C1` (stereo not shown) [Example 253, 3-{[[2-(2-Cyclopropylmethyl-1,2,3,4-tetrahydro-isoquinolin-5-ylamino)-acetyl]-(2-trifluoromethyl-benzyl)-amino]-methyl}-pyrrolidine-1-carboxylic acid tert-butyl ester], for which the EC50 came to 42 nM.

For the compound `CN(C)CCN(Cc1ccccc1F)C(=O)CNc1cccc2c1CCN(CC1CC1)C2` [Example 38, 2-(2-Cyclopropylmethyl-1,2,3,4-tetrahydro-isoquinolin-5-ylamino)-N-(2-dimethylamino-ethyl)-N-(2-fluoro-benzyl)-acetamide], the EC50 was found to be 3 nM. The compound `CCOC(=O)CN(Cc1ccccc1)C(=O)/C=C/c1cccc2c1CCN(C(=O)OC(C)(C)C)C2` [Example 94, 5-[(E)-2-(Benzyl-ethoxycarbonylmethyl-carbamoyl)-vinyl]-3,4-dihydro-1H-isoquinoline-2-carboxylic acid tert-butyl ester] registered an EC50 of 452 nM. `CN1CCC(N(Cc2ccccc2C(F)(F)F)C(=O)CNc2cccc3c2CCN(C(=O)OC(C)(C)C)C3)CC1` [Example 10, 5-({[(1-Methyl-piperidin-4-yl)-(2-trifluoromethyl-benzyl)-carbamoyl]-methyl}-amino)-3,4-dihydro-1H-isoquinoline-2-carboxylic acid tert-butyl ester]: a half-maximal effect (EC50) was put at 337 nM. With `CCC(=O)N1CCc2c(cccc2NCC(=O)N(CCN(C)C)Cc2ccccc2F)C1` [Example 23, N-(2-Dimethylamino-ethyl)-N-(2-fluoro-benzyl)-2-(2-propionyl-1,2,3,4-tetrahydro-isoquinolin-5-ylamino)-acetamide], the concentration for a half-maximal effect (EC50) came out at 16 nM.

`CCC(=O)N1CCc2c(cccc2NCC(=O)N(CCN(C)C)Cc2cccc(C)c2)C1` [Example 14, N-(2-Dimethylamino-ethyl)-N-(3-methyl-benzyl)-2-(2-propionyl-1,2,3,4-tetrahydro-isoquinolin-5-ylamino)-acetamide] came in with a half-maximal effective concentration (EC50) of 53 nM. With `O=C(CNc1cccc2c1CCN(CC1CC1)C2)N(CCN1CCC(F)(F)CC1)Cc1ncccc1Cl` [Example 249, N-(3-Chloro-pyridin-2-ylmethyl)-2-(2-cyclopropylmethyl-1,2,3,4-tetrahydro-isoquinolin-5-ylamino)-N-[2-(4,4-difluoro-piperidin-1-yl)-ethyl]-acetamide] the figure was 12 nM. Take `CNCCN(Cc1ccccc1C(F)(F)F)C(=O)CNc1cccc2c1CCN(C(=O)OCC(C)(C)C)C2` [compound 402]: a half-maximal effect (EC50) was put at 198 nM. With `COc1ccc(CCN(CCN(C)C)C(=O)CNc2cccc3c2CCN(CC2CC2)C3)cc1OC` [Example 59, 2-(2-Cyclopropylmethyl-1,2,3,4-tetrahydro-isoquinolin-5-ylamino)-N-[2-(3,4-dimethoxy-phenyl)-ethyl]-N-(2-dimethylamino-ethyl)-acetamide], the EC50 came out at 147 nM.

In the case of `CCN1CCc2cccc(NCC(=O)N(CCc3ccccc3)CCN(C)C)c2C1` [compound 542], the 50% effective concentration (EC50) worked out at 113 nM.

As to `CN(C)CCN(Cc1ccccc1C(F)(F)F)C(=O)CNc1cccc2c1CCN(CCCF)C2` [Example 574, N-(2-Dimethylamino-ethyl)-2-[2-(3-fluoro-propyl)-1,2,3,4-tetrahydro-isoquinolin-5-ylamino]-N-(2-trifluoromethyl-benzyl)-acetamide], the EC50 is 6 nM.

`CN(C)CCN(Cc1ccccc1C(F)(F)F)C(=O)NCc1cccc2c1CN(CC1CC1)CC2` [Example 569, 3-(2-Cyclopropylmethyl-1,2,3,4-tetrahydro-isoquinolin-8-ylmethyl)-1-(2-dimethylamino-ethyl)-1-(2-trifluoromethyl-benzyl)-urea] showed an EC50 of 26 nM. With `CNCCN(Cc1ncccc1C(F)(F)F)C(=O)CNc1cccc2c1CCN(C(C)=O)C2` [compound 408, 2-(2-Acetyl-1,2,3,4-tetrahydro-isoquinolin-5-ylamino)-N-(2-methylamino-ethyl)-N-(3-trifluoromethyl-pyridin-2-ylmethyl)-acetamide] the figure was 10 nM; with `O=C(CNc1cccc2c1CCN(CC1CC1)C2)N(Cc1ccccc1C(F)(F)F)C[C@@H]1CCNC1` [compound 379], 3 nM; with `CCN1CCc2cccc(NCC(=O)N(CCN3CCCC3)Cc3ccccc3C(F)(F)F)c2C1` [compound 489, 2-(2-Ethyl-1,2,3,4-tetrahydro-isoquinolin-8-ylamino)-N-(2-pyrrolidin-1-yl-ethyl)-N-(2-trifluoromethyl-benzyl)-acetamide], 7 nM.

On to `CC(C)(O)CN(Cc1ncccc1Cl)C(=O)CNc1cccc2c1CN(CC1CC1)CC2` [compound 487], for which the 50% effective concentration (EC50) is 100 nM.

As to `CN(C)CCN(Cc1ccccc1)C(=O)/C=C/c1cccc2c1CCN(C(=O)OC(C)(C)C)C2` [Example 93, 5-{(E)-2-[Benzyl-(2-dimethylamino-ethyl)-carbamoyl]-vinyl}-3,4-dihydro-1H-isoquinoline-2-carboxylic acid tert-butyl ester], the midpoint of the response, the EC50, lay at 88 nM. As for `Cc1cc(CN(CCN(C)C)C(=O)CNc2cccc3c2CCN(CC2CC2)C3)no1` [Example 269, 2-(2-Cyclopropylmethyl-1,2,3,4-tetrahydro-isoquinolin-5-ylamino)-N-(2-dimethylamino-ethyl)-N-(5-methyl-isoxazol-3-ylmethyl)-acetamide], the EC50 worked out at 54 nM. The compound `COCCN1CCc2c(cccc2NCC(=O)N(CCN(C)C)Cc2ccccc2C(F)(F)F)C1` [Example 359, N-(2-(dimethylamino)ethyl)-2-((2-(2-methoxyethyl)-1,2,3,4-tetrahydroisoquinolin-5-yl)amino)-N-(2-(trifluoromethyl)benzyl)acetamide] had a half-maximal effective concentration (EC50) of 9 nM. In turn, `CNCCN(Cc1ccccc1C(F)(F)F)C(=O)CNc1cccc2c1CCN(C(=O)OC)C2` [compound 394, 5-({[(2-Methylamino-ethyl)-(2-trifluoromethyl-benzyl)-carbamoyl]-methyl}-amino)-3,4-dihydro-1H-isoquinoline-2-carboxylic acid methyl ester] came in with an EC50 of 9 nM.

Regarding `CNCCN(Cc1ncccc1C(F)(F)F)C(=O)CNc1cccc2c1CCN(C(=O)OCCF)C2` [compound 425, 5-({[(2-Methylamino-ethyl)-(3-trifluoromethyl-pyridin-2-ylmethyl)-carbamoyl]-methyl}-amino)-3,4-dihydro-1H-isoquinoline-2-carboxylic acid 2-fluoro-ethyl ester], it took 27 nM to reach a half-maximal effect (EC50). In turn, `CCN1CCc2cccc(NCC(=O)N(CCN(C)C)Cc3cccc(OC)c3)c2C1` [compound 498] showed a concentration for a half-maximal effect (EC50) of 118 nM.

Turning to `COCCN1CCc2c(/C=C/C(=O)N(Cc3ccccc3C(F)(F)F)CC(C)(C)O)cccc2C1` [Example 323, (E)-N-(2-Hydroxy-2-methyl-propyl)-3-[2-(2-methoxy-ethyl)-1,2,3,4-tetrahydro-isoquinolin-5-yl]-N-(2-trifluoromethyl-benzyl)-acrylamide], the EC50 stood at 182 nM. `NC(=O)CCN(Cc1ccccc1)C(=O)CNc1cccc2c1CCN(CC1CC1)C2` [Example 68, 3-{Benzyl-[2-(2-cyclopropylmethyl-1,2,3,4-tetrahydro-isoquinolin-5-ylamino)-acetyl]-amino}-propionamide] displayed an EC50 of 330 nM.

For the compound `CCN1CCc2cccc(NCC(=O)N(CCN(C)C)Cc3ccc(C)cc3)c2C1` [compound 496], the EC50 is 79 nM. `CNCCN(Cc1ncccc1C(F)(F)F)C(=O)CNc1cccc2c1CCN(C(=O)C(C)C)C2` [compound 412, 2-(2-Isobutyryl-1,2,3,4-tetrahydro-isoquinolin-5-ylamino)-N-(2-methylamino-ethyl)-N-(3-trifluoromethyl-pyridin-2-ylmethyl)-acetamide] gave a concentration giving a half-maximal response (EC50) of 20 nM. With `Cc1cccnc1CN(CCN(C)C)C(=O)CNc1cccc2c1CCN(CC1CC1)C2` [Example 256, 2-(2-Cyclopropylmethyl-1,2,3,4-tetrahydro-isoquinolin-5-ylamino)-N-(2-dimethylamino-ethyl)-N-(3-methyl-pyridin-2-ylmethyl)-acetamide] the figure was 11 nM. In turn, `O=C(/C=C/c1cccc2c1CCN(CC1CC1)C2)N(CCO)Cc1ccccc1` [Example 138, (E)-N-Benzyl-3-(2-cyclopropylmethyl-1,2,3,4-tetrahydro-isoquinolin-5-yl)-N-(2-hydroxy-ethyl)-acrylamide] showed a half-maximal effective concentration (EC50) of 55 nM. With `CN(C)CCN(Cc1ccccc1Cl)C(=O)CNc1cccc2c1CN(CC1CC1)CC2(C)C` [compound 197], the half-maximal effective concentration (EC50) is 257 nM.
